The source of these data is ChEMBL document CHEMBL3727361, “Nitrogen bicyclic compounds as inhibitors for Scyl1 and Grk5” (2014).

The test relates to Beta-TC6. Nature of the test: Increase in insulin release in mouse BetaTC6 cells assessed as relative insulin release activity at 10 uM incubated for 2 to 4 hrs by FRET based HTRF assay relative to sunitinib. The test is classed as functional. A general note: In TR-FRET formats the signal depends on donor and acceptor labels being close together.
For `CSc1ccc(-c2cn3c(-c4cccnc4)cnc3cn2)cc1`, the Activity amounted to 20%. Consider `CCOc1ccc(-c2cnc3cccnn23)cc1`, for which the Activity came to 10%. Take `Cc1cccc(-c2cn3c(-c4ccc(CCC(=O)O)cc4)cnc3cn2)c1C`: the Activity is 50%.

Consider `c1csc(-c2cnc3cnc(-c4ccsc4)cn23)c1`, for which the Activity worked out at 50%. As to `COc1ccc(-c2nnc3ccc(-c4cccc(F)c4)cn23)cc1OC`, the Activity entry was “>=100%”. In the case of `COc1cccc(CC(=O)Nc2cnc3cnc(-c4cnn(C)c4)cn23)c1`, the Activity worked out at 10%.

Take `Clc1ccc(-c2cnc3cnc(-c4ccsc4)cn23)cc1`: the Activity was 50%. On to `COc1cc(OC)cc(-c2cn3c(-c4cccc(N(C)C)c4)cnc3cn2)c1`, for which the Activity turned out to be 20%. Turning to `Clc1cccc(-c2nnc3ccc(-c4cncnc4)cn23)c1`, the Activity is listed as 20%. In the case of `CNC(=O)c1ccc(-c2ccc3nnc(-c4ccc(OCCCN(C)C)cc4)n3c2)cc1`, the Activity was determined as 20%. Take `COc1cccc(CC(=O)Nc2cnc3cnc(-c4cccs4)cn23)c1`: the Activity stood at 20%. The figure for `Cc1ccccc1-c1cnc2cnc(-c3cccc(F)c3)cn12` is 10%; for `OCc1cccc(-c2ccc3nnc(-c4ccccn4)n3c2)c1` it is 20%. For `CN(C)C(=O)c1cccc(-c2cn3c(-c4ccc(N(C)C)cc4)cnc3cn2)c1`, the Activity was found to be 20%. The figure for `c1cc2c(cc1CNc1ccc3ncc(-c4ccc(N5CCOCC5)cc4)n3n1)OCO2` is 20%; for `Cc1cccc(-c2cnc3cccnn23)c1` it is 10%.

On to `N#Cc1ccc(-c2cnc3cnc(-c4ccccc4)cn23)cc1`, for which the Activity came to 20%. For `O=S1(=O)CCN(CC#Cc2ccc3nnc(-c4cscn4)n3c2)CC1` the value was 10%.

As to `COCCNc1ccc2ncc(-c3ccc(C(=O)Nc4ccc(OC)cc4)cc3)n2n1`, the Activity is 20%. As for `COc1ccccc1-c1cn2c(NC(=O)c3ccccc3)cnc2cn1`, the Activity came out at 20%. Turning to `COc1cccc(-c2cn3c(NC(=O)Cc4ccsc4)cnc3cn2)c1`, the Activity turned out to be 20%. For `Fc1cccc(-c2ccc3ncc(-c4ccc5c(c4)OCO5)n3n2)c1`, the Activity is given as 20%.

As to `CS(=O)(=O)Nc1cccc(-c2cn3c(-c4cccs4)cnc3cn2)c1`, the Activity came out at 20%.

With `Clc1cccc(-c2nnc3ccc(-c4ncccn4)cn23)c1`, the Activity turned out to be 10%. Regarding `COc1ccc(-c2nnc3ccc(-c4cccc(C(=O)N(C)C)c4)cn23)cc1OC`, the Activity turned out to be 50%. The figure for `c1csc(-c2cnc3cnc(-c4ccncc4)cn23)c1` is 20%.

Regarding `COc1cccc(CC(=O)Nc2cnc3cnc(-c4ccc(Oc5ccccc5)cc4)cn23)c1`, the Activity turned out to be 10%. As to `COc1ccc(-c2cnc3cnc(-c4ccc(N5CCN(C)CC5)cc4)cn23)cn1`, the Activity was 20%. Consider `CN1CCN(c2ccc(-c3cn4c(-c5ccc(C(=O)N(C)C)cc5)cnc4cn3)cn2)CC1`, for which the Activity is reported as 20%. In the case of `COc1cccc(-c2ccc3nnc(-c4cscn4)n3c2)c1`, the Activity is 50%. For `COc1ccc(CNc2ccc3ncc(-c4ccc(O)cc4)n3n2)cc1` the value was 20%. Regarding `N#Cc1cccc(-c2nnc3ccc(-c4ccccn4)cn23)c1`, the Activity was determined as 20%. The figure for `CN(C)c1cccc(-c2cnc3cnc(-c4cccs4)cn23)c1` is 20%; for `Oc1cccc(-c2cnc3cnc(/C=C/c4ccccc4)cn23)c1` it is 20%; for `CC(=O)Nc1cccc(-c2cnc3ccc(-c4cccnc4)nn23)c1` it is 10%. Regarding `CNC(=O)c1cccc(-c2ccc3nnc(-c4ccc5c(c4)OCO5)n3c2)c1`, the Activity was 20%.

On to `COc1cc(-c2nnc3ccc(-c4ccccc4C)cn23)ccc1O`, for which the Activity is 50%.

With `COc1cc(-c2ccc3nnc(-c4ccc5nccnc5c4)n3c2)ccc1O`, the Activity stood at 50%. Consider `CN(C)c1ccc(-c2cnc3cnc(-c4ccc(C(=O)NCCO)cc4)cn23)cc1`, for which the Activity is listed as 50%. The figure for `COc1cc(-c2cn3c(-c4ccc5c(ccn5C)c4)cnc3cn2)ccc1O` is 20%. For the molecule `COc1cc(OC)cc(-c2cn3c(-c4cccs4)cnc3cn2)c1`, the Activity worked out at 20%. For `Nc1cccc(-c2ccc3ncc(-c4cccc(Cl)c4)n3n2)c1`, the Activity was 20%.

For `Clc1ccccc1-c1ccc2nnc(-c3cscn3)n2c1`, the Activity is reported as 50%. For `CCC(CO)Nc1ccc2ncc(-c3ccccc3Cl)n2n1` (stereo not given), the Activity is recorded as 10%. As for `CS(=O)(=O)Nc1cccc(-c2cn3c(-c4cccnc4)cnc3cn2)c1`, the Activity stood at 20%. Consider `Clc1cccc(-c2ccc3nnc(-c4ccc5c(c4)OCO5)n3c2)c1`, for which the Activity is listed as 20%. Take `CSc1ccccc1-c1cnc2cccnn12`: the Activity stood at 50%. Consider `COc1cc(OC)cc(-c2cn3c(-c4ccsc4)cnc3cn2)c1`, for which the Activity turned out to be 20%.

As for `CC(C)Oc1cccc(-c2cn3c(-c4cccc(CO)c4)cnc3cn2)c1`, the Activity worked out at 20%. Take `N#Cc1ccc(-c2cnc3cnc(-c4ccc(CO)cc4)cn23)cc1`: the Activity is listed as 20%. For `CCOc1cccc(-c2cn3c(-c4ccc5c(c4)OCO5)cnc3cn2)c1` the value was 50%; for `CN(C)c1ccc(-c2cnc3cnc(-c4ccc(NCCN5CCOCC5)nc4)cn23)cc1`, 50%. As to `O=C(O)CCc1ccc(-c2cnc3cnc(-c4ccccc4CO)cn23)cc1`, the Activity was found to be 20%. For `COc1ccc(-c2cnc3ccc(NCC4CC4)nn23)cn1` the value was 10%; for `COc1ccc(-c2cnc3cnc(-c4cccc(C(N)=O)c4)cn23)cn1`, 20%; for `O=C(O)CCc1ccc(-c2cnc3cnc(-c4cccs4)cn23)cc1`, 20%.

Consider `C(=C\c1cn2c(-c3cccs3)cnc2cn1)/c1ccccc1`, for which the Activity was 20%.

`Clc1ccccc1-c1ccc2nnc(-c3cccnc3)n2c1`: the Activity came out at 50%. For `CC(=O)Nc1ccc(-c2cnc3ccc(-c4ccc5c(c4)OCO5)nn23)cc1` the value was “>=100%”; for `CN1CCN(C(=O)c2ccc(-c3cnc4cnc(/C=C/c5ccccc5)cn34)cc2)CC1`, 10%; for `c1cc(-c2nnc3ccc(-c4ccc(N5CCOCC5)cc4)cn23)ccn1`, 20%. `N#Cc1cccc(-c2cnc3cccnn23)c1`: the Activity was 20%. As to `FC(F)(F)Oc1cccc(-c2nnc3ccc(C#Cc4ccccc4)cn23)c1`, the Activity is recorded as 20%.

With `COc1ccc(CNc2ccc3ncc(-c4ccc(OC)cc4OC)n3n2)cc1`, the Activity is 10%. The figure for `COc1cc(-c2cnc3cnc(-c4ccc(N)nc4)cn23)ccc1O` is 20%.

`CS(=O)(=O)Nc1ccc(-c2cnc3cccnn23)cc1`: the Activity was 10%. Regarding `O=C(Nc1cnc2cnc(-c3ccsc3)cn12)c1cccs1`, the Activity is 20%. On to `Clc1cccc(-c2nnc3ccc(-c4ccncc4)cn23)c1`, for which the Activity is reported as 50%. The figure for `Cn1cc(-c2cn3c(-c4ccc(O)cc4)cnc3cn2)cn1` is 20%; for `Cn1ccc2cc(-c3cnc4cnc(-c5cccc(C(N)=O)c5)cn34)ccc21` it is 20%.
